The subject of one assay is WSU-DLCL2. The assay is described as follows: Methylated lysine of histone-H3 (H3K27Me3) detection by ELISA, WSU-DLCL2 cells. The settings on record: Homo sapiens, WSUDLCL2, 168 h; WSU-DLCL2, 7 days treatment, H3K27Me3 normalized to total histone-3; read-out: IC50 of cell methylation, WSU-DLCL2. It is filed as cell-based. As to the method: (§1) The operations for adherent cells and suspension cells cultured in 96-well plates were slightly different after they had been treated with compound (4-fold dilution 20 uM-0.009 nM, 3 duplicate wells) for 7 days, and the operations are summarized as follows: For adherent cells, after discarding the medium, 75 uL of 1-fold hypotonic lysis buffer (10 mM Tris-HCl, pH 7.5, containing halt protease inhibitor and PMSF with a final concentration of 1 mM) was added; the plate was frozen at −80° C. for at least 1 h or overnight; once the plate was taken away from the −80° C. environment, 120 uL (to a final volume of about 195 uL) of 1-fold hypotonic lysis buffer (containing protease inhibitor) was added, and the plate was thawed at room temperature and shaken for 2 min for mixing; and 8 uL (to a final volume of about 203 uL) of 2.5 M NaCl was added to each well to a final NaCl concentration of 100 mM and then the plate was shaken for an additional 2 min for mixing.
(§2) For suspension cells (final volume of medium was 100 uL/well), 25 uL of 5-fold hypotonic lysis buffer (50 mM Tris-HCl, pH 7.5, containing halt protease inhibitor and PMSF with a final concentration of 1 mM) was added, and the plate was frozen at −80° C. for at least 1 h or overnight. Once the plate was taken away from the −80° C. environment, 20 uL of 0.625 M NaCl was added to each well to a final NaCl concentration of about 100 mM, and the mixture was mixed well.
(§3) 75 uL or 100 uL of sample (with duplicate wells provided) was added to two 96-well ELISA plates (ThermoFisher Scientific; Immulon 4HBX 3885) and the plates were coated with total protein lysate and incubated overnight at 4° C. 50 uL of lysate was retained for protein quantitation if necessary. The sealing of the plates must be ensured. The plates were washed twice with 300 uL of 1×PBST (PBS containing 0.05% Tween 20) per well. Each well was blocked with 300 uL of dilution (PBS+2% BSA+0.05% Tween 20), incubated for 2 h at room temperature, and washed twice with 1×PBST. Primary antibodies were diluted with a dilution solution containing 1% BSA+0.05% Tween 20. 75-100 uL of anti-H3K27Me3 antibody (CST; 9733; 50% glycerol stock, 1:1,000) or anti-total histone-3 antibody (Abcam; ab1791; 50% glycerol stock, 1:10,000) was added to each well. The plates were incubated for 90 min at room temperature or incubated overnight at 4° C. The plates were washed three times with 1×PBST. 75-100 uL of anti-Rb-IgG-HRP secondary antibody (Cell Signaling Technology; 7074) was added per well, 1:2000 diluted secondary antibody for anti-H3K 27Me3 plate and 1:6000 diluted secondary antibody for anti-histone total histone-3 plate. The plates were incubated at room temperature for 90 min. The plate assayed with anti-histone-3 antibody was used to normalize the data for the corresponding plate assayed with anti-H3K 27me3. The plates must be washed at least three times with 1×PBST after primary or secondary antibody incubation. The plates were assayed by adding 75-100 uL of 3,3′,5,5′-tetramethylbenzidine substrate (CST or ThermoFisher Scientific; TMBS) per well and incubated away from light for 30 min at 37° C. The reaction was terminated by adding 100 uL of 0.5 M H2SO4 per well. The absorbance was read at 450 nm. Curve fitting was performed using Graph Pad program.

A further assay concerns Pfeiffer. Kind of assay: Methylated lysine of histone-H3 (H3K27Me3) detection by ELISA, Pfeiffer cells. It counts as cell-based, human. The settings on record: Homo sapiens, 168 h, 7 days treatment, H3K27Me3 normalized to total histone-3, read-out: IC50 of cell methylation, Pfeiffer. As to the method: as §1, §2, §3
(In an ELISA, binding on a coated surface is turned into a signal by an enzyme label.)

In another assay the target is EZH2 enzyme complex (Homo sapiens (Human), UniProt Q15910). Kind of assay: Test on EZH2 inhibitory activity (TR-FRET). It counts as biochemical. The settings on record: EZH2 enzyme complex 25 ng/uL, histone H3 peptide 4 uM, SAM 2 uM, 300 min; read-out: IC50 of EZH2 inhibition. Background: In TR-FRET formats the signal depends on donor and acceptor labels being close together.

Some results are limits rather than exact numbers.

The term IC50 denotes the concentration at which inhibition is half-maximal.

EZH2 enzyme complex, sequence (Q15910 whole entry): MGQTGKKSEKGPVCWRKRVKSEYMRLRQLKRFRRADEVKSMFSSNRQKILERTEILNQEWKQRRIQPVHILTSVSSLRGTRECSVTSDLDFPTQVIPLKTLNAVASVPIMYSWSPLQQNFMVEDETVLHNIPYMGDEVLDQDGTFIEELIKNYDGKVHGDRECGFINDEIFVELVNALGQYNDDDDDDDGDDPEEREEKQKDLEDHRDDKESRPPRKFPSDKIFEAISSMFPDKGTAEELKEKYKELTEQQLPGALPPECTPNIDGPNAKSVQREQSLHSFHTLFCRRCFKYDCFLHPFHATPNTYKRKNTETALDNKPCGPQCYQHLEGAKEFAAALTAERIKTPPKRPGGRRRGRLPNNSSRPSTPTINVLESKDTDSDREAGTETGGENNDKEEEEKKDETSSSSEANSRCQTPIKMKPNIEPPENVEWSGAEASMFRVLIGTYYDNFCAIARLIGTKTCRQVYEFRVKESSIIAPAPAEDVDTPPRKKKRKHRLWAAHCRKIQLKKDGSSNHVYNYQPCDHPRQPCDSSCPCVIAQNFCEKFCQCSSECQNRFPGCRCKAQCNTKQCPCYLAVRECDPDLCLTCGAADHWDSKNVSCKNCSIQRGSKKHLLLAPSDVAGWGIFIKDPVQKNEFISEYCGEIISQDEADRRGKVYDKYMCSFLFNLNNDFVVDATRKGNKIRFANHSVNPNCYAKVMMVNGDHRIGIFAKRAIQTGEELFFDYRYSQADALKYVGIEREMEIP
EZH2 enzyme complex, sequence (O75530 whole entry partner): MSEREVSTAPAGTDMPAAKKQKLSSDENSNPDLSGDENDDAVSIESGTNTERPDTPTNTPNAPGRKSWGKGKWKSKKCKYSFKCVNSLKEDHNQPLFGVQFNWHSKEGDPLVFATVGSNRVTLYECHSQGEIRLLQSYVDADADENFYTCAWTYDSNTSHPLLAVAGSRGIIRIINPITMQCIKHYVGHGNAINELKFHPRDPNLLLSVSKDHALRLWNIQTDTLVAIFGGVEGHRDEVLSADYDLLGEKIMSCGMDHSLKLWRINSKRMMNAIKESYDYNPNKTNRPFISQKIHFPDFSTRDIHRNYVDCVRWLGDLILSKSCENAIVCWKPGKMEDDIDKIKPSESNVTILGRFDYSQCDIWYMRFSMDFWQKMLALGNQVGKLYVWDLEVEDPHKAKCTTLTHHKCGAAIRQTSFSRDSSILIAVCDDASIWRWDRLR
EZH2 enzyme complex, sequence (Q15022 whole entry partner): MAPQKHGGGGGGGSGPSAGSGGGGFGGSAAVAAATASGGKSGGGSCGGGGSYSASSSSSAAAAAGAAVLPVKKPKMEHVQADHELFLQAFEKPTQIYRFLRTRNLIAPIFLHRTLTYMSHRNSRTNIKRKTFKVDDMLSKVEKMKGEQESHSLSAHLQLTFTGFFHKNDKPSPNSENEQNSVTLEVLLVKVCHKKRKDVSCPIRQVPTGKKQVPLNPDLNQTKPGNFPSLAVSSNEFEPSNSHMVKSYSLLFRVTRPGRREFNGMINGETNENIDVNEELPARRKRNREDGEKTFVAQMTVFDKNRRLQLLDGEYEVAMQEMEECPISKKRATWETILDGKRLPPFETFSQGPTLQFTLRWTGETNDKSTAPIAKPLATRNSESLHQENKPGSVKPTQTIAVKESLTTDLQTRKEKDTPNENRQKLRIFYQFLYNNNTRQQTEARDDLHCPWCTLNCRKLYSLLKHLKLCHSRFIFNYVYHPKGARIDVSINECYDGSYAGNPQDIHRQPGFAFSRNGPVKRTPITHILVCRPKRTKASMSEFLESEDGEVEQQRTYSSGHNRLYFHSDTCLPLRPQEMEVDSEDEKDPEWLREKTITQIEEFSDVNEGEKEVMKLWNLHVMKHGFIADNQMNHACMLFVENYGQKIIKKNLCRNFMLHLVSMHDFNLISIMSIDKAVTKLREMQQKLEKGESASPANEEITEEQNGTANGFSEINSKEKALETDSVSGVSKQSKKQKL

`CCN(c1cc(O[C@H]2C[C@@H](N3C[C@@H](C)O[C@@H](C)C3)C2)cc(C(=O)NCc2c(C)cc(C)[nH]c2=O)c1C)[C@@H]1C[C@@H](C)O[C@@H](C)C1` [Example 38, N-((4,6-dimethyl-2-oxo-1,2-dihydropyridin-3-yl)methyl)-5-((1S,3S)-3-((2S,6R)-2,6-dimethylmorpholinyl)cyclobutoxy)-3-(((2R,4s,6S)-2,6-dimethyltetrahydro-2H-pyran-4-yl)(ethyl)amino)-2-methylbenzamide]: the half-maximal inhibitory concentration (IC50) was greater than 1000 nM in the assay with WSU-DLCL2, 500 to 1000 nM with Pfeiffer and 100 to 1000 nM on EZH2 enzyme complex.

Consider `CCN(c1cc(O[C@H]2C[C@@H](N3CCN(C)CC3)C2)cc(C(=O)NCc2c(C)cc(C)[nH]c2=O)c1C)C1CCOCC1` [Example 19, N-((4,6-dimethyl-2-oxo-1,2-dihydropyridin-3-yl)methyl)-3-(ethyl(tetrahydro-2H-pyran-4-yl)amino)-2-methyl-5-(cis-3-(4-methylpiperazin-1-yl)cyclobutoxy)benzamide], for which the IC50 in the assay on WSU-DLCL2 is 50 to 500 nM; in the assay with Pfeiffer, less than 50 nM; at EZH2 enzyme complex, 10 to 100 nM.

Turning to `CCN(c1cc(OC2CC(CN3CCOCC3)C2)cc(C(=O)NCc2c(C)cc(C)[nH]c2=O)c1C)C1CCOCC1` (stereo not shown) [Example 16, N-((4,6-dimethyl-2-oxo-1,2-dihydropyridin-3-yl)methyl)-3-(ethyl(tetrahydro-2H-pyran-4-yl)amino)-2-methyl-5-(3-(morpholinylmethyl)cyclobutoxy)benzamide], the half-maximal inhibitory concentration (IC50) with WSU-DLCL2 is 50 to 500 nM; with Pfeiffer it was less than 50 nM; at EZH2 enzyme complex, 10 to 100 nM.

As to `CCN(c1cc(OC2CC(C)(C)C2)cc(C(=O)NCc2c(C)cc(C)[nH]c2=O)c1C)C1CCOCC1` [Example 12, N-((4,6-dimethyl-2-oxo-1,2-dihydropyridin-3-yl)methyl)-5-(3,3-dimethylcyclobutoxy)-3-(ethyl(tetrahydro-2H-pyran-4-yl)amino)-2-methylbenzamide], the half-inhibitory concentration (IC50) was greater than 1000 nM in the assay with WSU-DLCL2, 50 to 500 nM in the assay on Pfeiffer and 10 to 100 nM at EZH2 enzyme complex.

As for `CCN(c1cc(O[C@H]2C[C@H](N3C[C@@H](C)O[C@@H](C)C3)C2)cc(C(=O)NCc2c(C)cc(C)[nH]c2=O)c1C)[C@H]1C[C@@H](C)O[C@@H](C)C1` [Example 35, N-((4,6-dimethyl-2-oxo-1,2-dihydropyridin-3-yl)methyl)-5-(trans-3-(cis-2,6-dimethylmorpholinyl)cyclobutoxy)-3-((cis-2,6-dimethyltetrahydro-2H-pyran-4-yl)(ethyl)amino)-2-methylbenzamide], the IC50 was greater than 1000 nM in the assay with WSU-DLCL2, 50 to 500 nM in the assay on Pfeiffer and 10 to 100 nM at EZH2 enzyme complex.

Take `CCN(c1cc(O[C@H]2C[C@H](N3C[C@@H](C)O[C@@H](C)C3)C2)cc(C(=O)NCc2c(C)cc(C)[nH]c2=O)c1C)C1CCOC1` (stereo partly drawn) [Example 46, N-((4,6-dimethyl-2-oxo-1,2-dihydropyridin-3-yl)methyl)-5-(trans-3-(cis-2,6-dimethylmorpholinyl)cyclobutoxy)-3-(ethyl(tetrahydrofuran-3-yl)amino)-2-methylbenzamide]: the IC50 in the assay with WSU-DLCL2 was 50 to 500 nM; in the assay with Pfeiffer, 500 to 1000 nM; on EZH2 enzyme complex, less than 10 nM.

On to `CCN(c1cc(O[C@H]2C[C@H](N3CCN(C)CC3)C2)cc(C(=O)NCc2c(C)cc(C)[nH]c2=O)c1C)C1CCOCC1` [Example 20, N-((4,6-dimethyl-2-oxo-1,2-dihydropyridin-3-yl)methyl)-3-(ethyl(tetrahydro-2H-pyran-4-yl)amino)-2-methyl-5-(trans-3-(4-methylpiperazin-1-yl)cyclobutoxy)benzamide], for which the 50% inhibitory concentration (IC50) is 50 to 500 nM in the assay with WSU-DLCL2, less than 50 nM in the assay on Pfeiffer and 10 to 100 nM on EZH2 enzyme complex.

`CCN(c1cc([S+]([O-])C2CCC2)cc(C(=O)NCc2c(C)cc(C)[nH]c2=O)c1C)C1CCOCC1` (stereo not shown) [Example 9, 5-(cyclobutylsulfinyl)-N-((4,6-dimethyl-2-oxo-1,2-dihydropyridin-3-yl)methyl)-3-(ethyl(tetrahydro-2H-pyran-4-yl)amino)-2-methylbenzamide]: the figures for the IC50 with WSU-DLCL2, with Pfeiffer and at EZH2 enzyme complex were 500 to 1000 nM, 500 to 1000 nM and 100 to 1000 nM, respectively.

Turning to `CCN(c1cc(C2CC2CN2CCN(C(=O)OC)CC2)cc(C(=O)NCc2c(C)cc(C)[nH]c2=O)c1C)C1CCOCC1` (stereo not shown) [Example 80, methyl 4-((2-(3-(((4,6-dimethyl-2-oxo-1,2-dihydropyridin-3-yl)methyl)carbamoyl)-5-(ethyl(tetrahydro-2H-pyran-4-yl)amino)-4-methylphenyl)cyclopropyl)methyl)piperazine-1-carboxylate], the 50% inhibitory concentration (IC50) in the assay on WSU-DLCL2 is less than 50 nM; at EZH2 enzyme complex, 10 to 100 nM.

In the case of `CCN(c1cc(O[C@H]2C[C@H](N3CC4CC(C3)O4)C2)cc(C(=O)NCc2c(C)cc(C)[nH]c2=O)c1Cl)C1CCOCC1` [Example 55], the 50% inhibitory concentration (IC50) with WSU-DLCL2 lay within 50 to 500 nM; at EZH2 enzyme complex it was 10 to 100 nM.

For `CCN(c1cc(C2CC2CN2CCNCC2)cc(C(=O)NCc2c(C)cc(C)[nH]c2=O)c1Cl)C1CCOCC1` (stereo not shown) [Example 83, 2-chloro-N-((4,6-dimethyl-2-oxo-1,2-dihydropyridin-3-yl)methyl)-3-(ethyl(tetrahydro-2H-pyran-4-yl)amino)-5-(2-(piperazin-1-ylmethyl)cyclopropyl)benzamide], the 50% inhibitory concentration (IC50) in the assay on WSU-DLCL2 was greater than 1000 nM; at EZH2 enzyme complex, 10 to 100 nM.

As to `CCN(c1cc(C2CC2)cc(C(=O)NCc2c(C)cc(C)[nH]c2=O)c1C)C1CCOCC1` [Example 14, 5-cyclopropyl-N-((4,6-dimethyl-2-oxo-1,2-dihydropyridin-3-yl)methyl)-3-(ethyl(tetrahydro-2H-pyran-4-yl)amino)-2-methylbenzamide], the half-inhibitory concentration (IC50) in the assay on WSU-DLCL2 was 50 to 500 nM; in the assay on Pfeiffer, less than 50 nM.

Turning to `CCN(c1cc(O[C@H]2C[C@@H](N3C[C@@H](C)O[C@@H](C)C3)C2)cc(C(=O)NCc2c(C)cc(C)[nH]c2=O)c1C)[C@H]1C[C@@H](C)O[C@@H](C)C1` [Example 33], the figures for the IC50 with Pfeiffer and at EZH2 enzyme complex were 50 to 500 nM and 100 to 1000 nM, respectively.

Consider `CCN(c1cc(C2CC2CN2CCOCC2)cc(C(=O)NCc2c(C)cc(C)[nH]c2=O)c1C)[C@H]1CC[C@H](N(C)CCOC)CC1` (stereo partly drawn) [Example 82, N-((4,6-dimethyl-2-oxo-1,2-dihydropyridin-3-yl)methyl)-3-(ethyl(trans-4-((2-methoxyethyl)(methyl)amino)cyclohexyl)amino)-2-methyl-5-(2-(morpholinylmethyl)cyclopropyl)benzamide], for which the results for the IC50 with WSU-DLCL2 and at EZH2 enzyme complex were 50 to 500 nM and 10 to 100 nM, respectively.

In the case of `CCN(c1cc(O[C@H]2C[C@H](N3C[C@@H](C)O[C@@H](C)C3)C2)cc(C(=O)NCc2c(C)cc(C)[nH]c2=O)c1C)[C@H]1CC[C@H](N(C)CCOC)CC1` [Example 52, N-((4,6-dimethyl-2-oxo-1,2-dihydropyridin-3-yl)methyl)-5-(trans-3-(cis-2,6-dimethylmorpholinyl)cyclobutoxy)-3-(ethyl(trans-4-((2-methoxyethyl)(methyl)amino)cyclohexyl)amino)-2-methylbenzamide], the concentration for half-maximal inhibition (IC50) in the assay with WSU-DLCL2 lay in the range of 500 to 1000 nM; at EZH2 enzyme complex, 10 to 100 nM.

In the case of `CCN(c1cc(C2CC2CN2C[C@@H](C)O[C@@H](C)C2)cc(C(=O)NCc2c(C)cc(C)[nH]c2=O)c1Cl)C1CCOCC1` (stereo partly drawn) [Example 85, 2-chloro-N-((4,6-dimethyl-2-oxo-1,2-dihydropyridin-3-yl)methyl)-5-(2-(((2S,6R)-2,6-dimethylmorpholinyl)methyl)cyclopropyl)-3-(ethyl(tetrahydro-2H-pyran-4-yl)amino)benzamide], the concentration for half-maximal inhibition (IC50) fell in the range of 500 to 1000 nM with WSU-DLCL2 and 100 to 1000 nM on EZH2 enzyme complex.

The values are drawn from patent publication US12390472B2 (SUZHOU SINOVENT PHARMACEUTICALS CO., LTD., priority 2018, dated 2025).
